{"source": "patent US20220033405A1", "about": "“PHARMACEUTICAL COMPOSITION FOR PREVENTING OR TREATING CANCER CONTAINING PLK1 INHIBITOR AS ACTIVE INGREDIENT” (NATIONAL CANCER CENTER, priority 2018, published 2022)", "test": "Toxicity test, histopathological analysis of organs", "assay_type": "in vivo, mouse", "conditions": "1, 5 and 10 mg/kg intraperitoneally 3 times weekly, 2 weeks", "description": "Compound 4 (M21) was diluted in 300 μl of PBS and intraperitoneally injected 3 times weekly at 1 mg/kg, 5 mg/kg and 10 mg/kg per body weight of a mouse, respectively, and DMSO diluted in 300 μl of PBS was intraperitoneally injected at 3% in the control. After 2 weeks, the lungs, heart, liver, kidneys, spleen and skin were removed by sacrificing mice, and fixed in a formalin solution."}
{"smiles": "Cn1c2nc(=O)[nH]c(=O)c-2nc2cc(C(F)(F)F)ccc21", "note": "[Compound 4, 10-methyl-7-(trifluoromethyl)-2H,3H,4H,10H-benzo[g]pteridine-2,4-dione]", "values": [{"measurement": "histopathological analysis of lungs, heart, liver, kidneys, spleen and skin", "value": "No change by separate acute toxicity was observed"}]}
